Measured values reported in patent US5095012A, “Antibiotic C-7 catechol-substituted cephalosporin compounds, compositions, and method of use thereof” (Bristol-Myers Squibb Company, priority 1990, dated 1992).
Values after ≈ are worked out from the molar mass of the structure shown.

What was measured:
S. aureus Smith [1] = experiment: MIC against S. aureus Smith; assay type: cell-based; conditions: Staphylococcus aureus
Procedure: (§1) Minimum inhibitory concentrations (MICs) for the compounds in the above examples were determined against thirty two strains of test organisms by a two-fold serial agar dilution method in Mueller-Hinton agar. Geometric means of MICs were calculated against six groups of the test organisms which are classified as follows and summarized in Table 1.
(§2) In vivo antibacterial activity was determined against three bacterial infections (S. aureus Smith, E. coli Juhl and P. aeruginosa A98483A) by intramuscular administration to mice just after the bacterial challenge. PD50 values are summarized in Table 2 in comparison with the MIC values against the corresponding organisms.

[2] = system: Penicillin(PC)-resistant S. aureus (5); experiment: MIC by two-fold serial agar dilution, group Gp-Ib; assay type: cell-based; conditions: Staphylococcus aureus, Gp-Ib (5), Mueller-Hinton agar, read-out: Geometric mean of MIC, Gp-Ib
Procedure: as §1
Gp-Ib Penicillin(PC)-resistant S. aureus (5).

[3] = system: Penicillin(PC)-sensitive S. aureus (5 strains); experiment: MIC by two-fold serial agar dilution, group Gp-Ia; assay type: cell-based; conditions: Staphylococcus aureus, Gp-Ia (5 strains), Mueller-Hinton agar, read-out: Geometric mean of MIC, Gp-Ia
Procedure: as §1
Gp-Ia Penicillin(PC)-sensitive S. aureus (5 strains).

P. aeruginosa A9843A [4] = experiment: In vivo antibacterial activity in infected mice, P. aeruginosa A9843A; conditions: Pseudomonas aeruginosa, im, read-out: PD50, P. aeruginosa A9843A
Procedure: as §2

E. coli Juhl [5] = experiment: In vivo antibacterial activity in infected mice, E. coli Juhl; conditions: Escherichia coli, im, just after the bacterial challenge, read-out: PD50, E. coli Juhl
Procedure: as §2

Ps. aeruginosa (7) = experiment: MIC by two-fold serial agar dilution, group Gn-III; assay type: cell-based; conditions: Pseudomonas aeruginosa, Gn-III (7), Mueller-Hinton agar, read-out: Geometric mean of MIC, Gn-III
Procedure: as §1
Gn-III Ps. aeruginosa (7).

E. coli Juhl [6] = experiment: MIC against E. coli Juhl; assay type: cell-based; conditions: Escherichia coli
Procedure: as §1, §2

[7] = system: Cephalothin(CET)-sensitive E. coli (2), Kl. pneumoniae (1) and Pr. mirabilis (2); experiment: MIC by two-fold serial agar dilution, group Gn-Ia; assay type: cell-based; conditions: Gn-Ia (5), Mueller-Hinton agar, read-out: Geometric mean of MIC, Gn-Ia
Procedure: as §1
Gn-Ia Cephalothin(CET)-sensitive E. coli (2), Kl.
pneumoniae (1) and Pr. mirabilis (2).

[8] = system: M. morganii (1), Ent. cloacae (2) and Ser. marcescens (2); experiment: MIC by two-fold serial agar dilution, group Gn-II; assay type: cell-based; conditions: Gn-II (5), Mueller-Hinton agar, read-out: Geometric mean of MIC, Gn-II
Procedure: as §1
Gn-II M. morganii (1), Ent. cloacae (2) and Ser.

P. aeruginosa A9843A [9] = experiment: MIC against P. aeruginosa A9843A; assay type: cell-based; conditions: Pseudomonas aeruginosa, read-out: MIC, P. aeruginosa A9843A
Procedure: as §1, §2

[10] = system: Cephalothin(CET)-resistant E. coli (3) and Kl. pneumoniae (2); experiment: MIC by two-fold serial agar dilution, group Gn-Ib; assay type: cell-based; conditions: Escherichia coli, read-out: Geometric mean of MIC, Gn-Ib
Procedure: as §1
Gn-Ib Cephalothin(CET)-resistant E. coli (3) and Kl.

S. aureus Smith [11] = experiment: In vivo antibacterial activity in infected mice, S. aureus Smith; conditions: Staphylococcus aureus, im, just after the bacterial challenge, read-out: PD50, S. aureus Smith
Procedure: as §2

## Nc1nc(/C(=N/OC(C(=O)O)c2ccc(O)c(O)c2)C(=O)NC2C(=O)N3C(C(=O)[O-])=C(/C=C/C[n+]4ccccc4)CSC23)cs1 (stereo not drawn) [Ic]
S. aureus Smith [1]
  MIC: 0.4 µg/mL (≈ 0.613 µM)
[2]
  MIC: 0.4 µg/mL (≈ 0.613 µM)
[3]
  MIC: 0.26 µg/mL (≈ 0.398 µM)
P. aeruginosa A9843A [4]
  ED50: 12 mg/kg
E. coli Juhl [5]
  ED50: 0.067 mg/kg
Ps. aeruginosa (7)
  MIC: 2.3 µg/mL (≈ 3.52 µM)
E. coli Juhl [6]
  MIC: 0.05 µg/mL (≈ 0.0766 µM)
[7]
  MIC: 0.076 µg/mL (≈ 0.116 µM)
[8]
  MIC: 0.46 µg/mL (≈ 0.705 µM)
P. aeruginosa A9843A [9]
  MIC: 3.1 µg/mL (≈ 4.75 µM)
[10]
  MIC: 0.15 µg/mL (≈ 0.23 µM)
S. aureus Smith [11]
  ED50: 1.4 mg/kg

## Nc1nc(/C(=N/OCc2cc(O)c(O)cc2C(=O)O)C(=O)NC2C(=O)N3C(C(=O)[O-])=C(/C=C/C[n+]4ccccc4)CSC23)cs1 (stereo not drawn) [Id]
S. aureus Smith [1]
  MIC: 0.8 µg/mL (≈ 1.23 µM)
[2]
  MIC: 1.6 µg/mL (≈ 2.45 µM)
[3]
  MIC: 0.61 µg/mL (≈ 0.935 µM)
P. aeruginosa A9843A [4]
  ED50: 7.2 mg/kg
E. coli Juhl [5]
  ED50: 0.017 mg/kg
Ps. aeruginosa (7)
  MIC: 0.88 µg/mL (≈ 1.35 µM)
E. coli Juhl [6]
  MIC: 0.1 µg/mL (≈ 0.153 µM)
[7]
  MIC: 0.087 µg/mL (≈ 0.133 µM)
[8]
  MIC: 0.46 µg/mL (≈ 0.705 µM)
P. aeruginosa A9843A [9]
  MIC: 0.8 µg/mL (≈ 1.23 µM)
[10]
  MIC: 0.17 µg/mL (≈ 0.26 µM)
S. aureus Smith [11]
  ED50: 1 mg/kg

## C[N+]1(CC2=C(C(=O)[O-])N3C(=O)C(NC(=O)/C(=N\OC(C(=O)O)c4ccc(O)c(O)c4)c4csc(N)n4)[C@H]3SC2)Cc2cc(O)c(O)cc2C1 (stereo partly drawn) [Ie, 7-[2-(2-Aminothiazol-4-yl)-2-[(Z)-[carboxy(3,4-dihydroxy-phenyl)methyl]oxyimino]acetamido]-3-(5,6-dihydroxy-2-methyl-2-isoindolinio)methyl-3-cephem-4-carboxylate]
S. aureus Smith [1]
  MIC: 12.5 µg/mL (≈ 17.5 µM)
[2]
  MIC: 13 µg/mL (≈ 18.2 µM)
[3]
  MIC: 8.3 µg/mL (≈ 11.6 µM)
P. aeruginosa A9843A [4]
  ED50: 2.1 mg/kg
E. coli Juhl [5]
  ED50: 0.045 mg/kg
Ps. aeruginosa (7)
  MIC: 0.3 µg/mL (≈ 0.421 µM)
E. coli Juhl [6]
  MIC: 0.8 µg/mL (≈ 1.12 µM)
[7]
  MIC: 0.46 µg/mL (≈ 0.645 µM)
[8]
  MIC: 1.6 µg/mL (≈ 2.24 µM)
P. aeruginosa A9843A [9]
  MIC: 0.4 µg/mL (≈ 0.561 µM)
[10]
  MIC: 0.46 µg/mL (≈ 0.645 µM)
S. aureus Smith [11]
  ED50: 2.4 mg/kg

## C/C=C\C1=C(C(=O)O)N2C(=O)C(NC(=O)/C(=N\OC(C(=O)O)c3ccc(O)c(O)c3)c3csc(N)n3)C2SC1 (stereo not drawn) [Ib]
S. aureus Smith [1]
  MIC: 0.8 µg/mL (≈ 1.39 µM)
[2]
  MIC: 2.1 µg/mL (≈ 3.65 µM)
[3]
  MIC: 0.92 µg/mL (≈ 1.6 µM)
P. aeruginosa A9843A [4]
  ED50: 17 mg/kg
E. coli Juhl [5]
  ED50: 1.5 mg/kg
Ps. aeruginosa (7)
  MIC: 5.1 µg/mL (≈ 8.86 µM)
E. coli Juhl [6]
  MIC: 0.4 µg/mL (≈ 0.695 µM)
[7]
  MIC: 0.17 µg/mL (≈ 0.295 µM)
[8]
  MIC: 7.3 µg/mL (≈ 12.7 µM)
P. aeruginosa A9843A [9]
  MIC: 3.1 µg/mL (≈ 5.39 µM)
[10]
  MIC: 0.35 µg/mL (≈ 0.608 µM)
S. aureus Smith [11]
  ED50: 6.8 mg/kg

## C[N+]1(CC2=C(C(=O)[O-])N3C(=O)C(NC(=O)C(=NOC(C(=O)O)c4ccc(O)c(O)c4)c4csc(N)n4)C3SC2)CCCC1 (stereo not drawn) [Ia, 7-[(2-(2-Aminothiazol-4-yl)-2[(Z)-[carboxy(3,4-dihydroxyphenyl)methyl]oxyimino]acetamido]-3-(1-methylpyrrolidinio)methyl-3-cephem-4-carboxylate]
S. aureus Smith [1]
  MIC: 1.6 µg/mL (≈ 2.53 µM)
[2]
  MIC: 3.1 µg/mL (≈ 4.9 µM)
[3]
  MIC: 1.4 µg/mL (≈ 2.21 µM)
P. aeruginosa A9843A [4]
  ED50: 6.3 mg/kg
E. coli Juhl [5]
  ED50: 0.14 mg/kg
Ps. aeruginosa (7)
  MIC: 1.6 µg/mL (≈ 2.53 µM)
E. coli Juhl [6]
  MIC: 0.2 µg/mL (≈ 0.316 µM)
[7]
  MIC: 0.3 µg/mL (≈ 0.474 µM)
[8]
  MIC: 0.8 µg/mL (≈ 1.26 µM)
P. aeruginosa A9843A [9]
  MIC: 1.6 µg/mL (≈ 2.53 µM)
[10]
  MIC: 0.4 µg/mL (≈ 0.632 µM)
S. aureus Smith [11]
  ED50: 5.6 mg/kg
